Measured values taken from publication PMC11274943, “Discovery of Benzisothiazolone Derivatives as Bifunctional Inhibitors of HIV-1 Reverse Transcriptase DNA Polymerase and Ribonuclease H Activities” (Biomolecules, 2024).

Assays:
[1] = molecular target: T1, WT HIV-1 RT RNase H activity (Human immunodeficiency virus type 1 group M subtype B, UniProt P04585); test: biochemical; assay type: biochemical; settings: for RNase H Activity IC50: WT RT, mean ± SD, at least three independent experiments
T1 construct: made in house
Experimental: (§1) WT (wild-type) RT, and RTs harboring the NNRTI-resistant mutations K101E, K103N, Y181C, Y188C, G190A and P236L, were overexpressed and purified to homogeneity as described previously. The RT concentration was determined spectrophotometrically at 280 nm using an absorbance coefficient of 260,450 M^−1·cm^−1. The 7-hydroxy tropolone derivative 19,616 (2,7-dihydroxy 2,4,6-cyclo-heptatrien-1-one) was purchased from Molecular Diversity Preservation International (Basel, Switzerland). […] The benzisothiazolone derivatives were procured from MolPort (New York, NY, USA) or Enamine (Kyiv, Ukraine). The DNA and RNA oligonucleotides were synthesized and purified by Integrated DNA Technologies (Coralville, IA, USA). All other reagents were of the highest quality available and were used without further purification.
Compounds were screened at a final concentration of 10 µM in 1× assay buffer (50 mM Tris pH 8.0, 60 mM KCl, 5 mM MgCl2) containing 1% DMSO in 384-well Greiner black polystyrene plates (VWR catalog # 82051-272). A total of 10 µL of intermediate diluted compounds (100 µM in 10% DMSO) was transferred into assay plates using the Evolution-3 (EP3) (Perkin Elmer, Waltham, MA, USA) automated liquid handling platform outfitted with a 384-well transfer head. A total of 40 µL of RT-RNase H enzyme (60 ng per well) were then dispensed into each well using the Titertek MAP-C2 reagent dispenser platform (Huntsville, AL, USA). A total of 50 µL of the RNA/DNA duplex (140 nM) substrate was then dispensed into each well using the MAP-C2 dispenser, and the assay plates were then incubated at room temperature for 20 min. After 20 min, the assay was terminated by the addition of 10 µL of 1 M EDTA pH 9.0 stop buffer. Relative fluorescent unit (RFU) signals, Excitation 490 nm and Emission 528 nm (Cutoff 515 nm), were captured on the Spectromax M5e plate reader (Molecular Devices, Menlo, CA, USA). […] The template also calculated the plate signal-to-background (S:B) ratios (mean maximum signal/mean minimum signal) and Z’-factor coefficient HTS performance statistics.
(§2) The following RNA/DNA T/P substrate was used in the present study: an 18-nucleotide RNA template (RNA-18T: 5′-[…]-3′) was annealed to an 18-nucleotide primer (DNA-18T: 5′-[…]-3′), as described previously. Fluorescein and IowaBlack FQTM were covalently attached to the 3′- and 5′-ter-mini of the RNA and DNA oligonucleotides, respectively.
(§3) The FRET-based RNase H cleavage assays were carried out as described previously. Fluorescence was measured with a SpectraMax M2 microplate spectrofluorometer (Molecular Devices, San Jose, CA, USA) using an excitation wavelength of 490 nm and an emission wavelength of 528 nm. Data were analyzed using SoftMax Pro software, version 4.7.1 (Molecular Devices, San Jose, CA, USA).
We implemented a rapid, robust and inexpensive fluorescence-based 384-well assay for the measurement of RT RNase H activity, previously described by Parniak et al.. The substrate comprises an 18-nucleotide 3′-fluorescein-labeled heteropolymeric RNA annealed to a complementary 5′-dabcyl-modified DNA. RT cleaves the RNA strand of this substrate close to the 3′ end, promoting the dissociation of the fluorescein-labeled RNA fragment and generating a detectable fluorescent signal. We used this HTS assay to screen 65,239 compounds at a final concentration of 10 µM.

[2] = molecular target: T2, WT HIV-1 RT DNA-dependent DNA polymerase activity (Human immunodeficiency virus type 1 group M subtype B, UniProt P04585); test: biochemical; assay type: biochemical; settings: for Polymerase Activity IC50 (DNA Polymerase): WT RT, mean ± SD, at least three independent experiments
T2 construct: made in house
Experimental: as §1
DDDP assays were also performed using a QuantiFluor ONE based spectrophotometric assay to detect double-stranded DNA synthesized by recombinant HIV-1 RT [14]. The reaction contained 40 nM of a template/primer comprising a 200 nt DNA template (5′-[…] […]-[…]-[…] […] […]-3′) annealed to an 18-nucleotide DNA primer (5′-[…]-3′), and a mix of 50 mM Tris-HCl pH 7.8, 50 mM NaCl, 10 mM MgCl2 and 50 µM dNTP. The reactions were stopped after 45 min by adding the detection reagent containing 1 × Quant-Fluor One (Promega) and 12.5 mM ethylenediaminetet-raacetic acid; the samples were transferred to a 96-well black plate, and fluorescence was measured at excitation/emission (490/535 nm).

[3] = molecular target: T3, K103N HIV-1 RT RNase H activity (Human immunodeficiency virus type 1 group M subtype B, UniProt P04585, K690N); test: FRET-based RT RNase H cleavage assay, K103N RT; assay type: biochemical
T3 construct: made in house
Experimental: (§4) WT (wild-type) RT, and RTs harboring the NNRTI-resistant mutations K101E, K103N, Y181C, Y188C, G190A and P236L, were overexpressed and purified to homogeneity as described previously. The RT concentration was determined spectrophotometrically at 280 nm using an absorbance coefficient of 260,450 M^−1·cm^−1. The 7-hydroxy tropolone derivative 19,616 (2,7-dihydroxy 2,4,6-cyclo-heptatrien-1-one) was purchased from Molecular Diversity Preservation International (Basel, Switzerland). Nevirapine was purchased from Selleckchem (Houston, TX, USA). The benzisothiazolone derivatives were procured from MolPort (New York, NY, USA) or Enamine (Kyiv, Ukraine). The DNA and RNA oligonucleotides were synthesized and purified by Integrated DNA Technologies (Coralville, IA, USA). All other reagents were of the highest quality available and were used without further purification.
as §2, §3

[4] = system: K103N HIV-1 RT RNase H activity; test: FRET-based RT RNase H cleavage assay, K103N RT; assay type: biochemical; settings: K103N RT; fold resistance IC50 mutant/IC50 WT
Experimental: as §4, §2, §3

[5] = system: K101E HIV-1 RT RNase H activity; test: FRET-based RT RNase H cleavage assay, K101E RT; assay type: biochemical; settings: K101E RT; fold resistance IC50 mutant/IC50 WT
Experimental: as §4, §2, §3

[6] = molecular target: T4, K101E HIV-1 RT RNase H activity (Human immunodeficiency virus type 1 group M subtype B, UniProt P04585, K688E); test: FRET-based RT RNase H cleavage assay, K101E RT; assay type: biochemical
T4 construct: made in house
Experimental: as §4, §2, §3

[7] = Cytotoxicity in TZM-bl cells; assay type: cell-based; settings: human, TZM-bl cell death
Experimental: (§5) Next, we re-purchased 10 hit compounds with IC50 values < 1.0 µM for the inhibition of RT RNase H activity that were commercially available in sufficient quantities for further analysis. We assessed their antiviral activity and cytotoxicity in TZM-bl cells, as described previously.

[8] = system: Y181C HIV-1 RT RNase H activity; test: FRET-based RT RNase H cleavage assay, Y181C RT; assay type: biochemical; settings: Y181C RT; fold resistance IC50 mutant/IC50 WT
Experimental: as §4, §2, §3

[9] = molecular target: T5, Y181C HIV-1 RT RNase H activity (Human immunodeficiency virus type 1 group M subtype B, UniProt P04585, Y768C); test: FRET-based RT RNase H cleavage assay, Y181C RT; assay type: biochemical
T5 construct: made in house
Experimental: as §4, §2, §3

[10] = system: HIV-1; test: Antiviral activity (HIV-1 replication) in TZM-bl cells; assay type: cell-based; settings: Human immunodeficiency virus 1, mean ± SD
Experimental: The genes for Y181C, Y181I, Y181V and Y181F were cloned into HIV-1LAI. NNRTI susceptibility was determined in TZM-bl cells, as described previously.
as §5

[11] = system: G190A HIV-1 RT RNase H activity; test: FRET-based RT RNase H cleavage assay, G190A RT; assay type: biochemical; settings: G190A RT; fold resistance IC50 mutant/IC50 WT
Experimental: as §4, §2, §3

[12] = molecular target: T6, G190A HIV-1 RT RNase H activity (Human immunodeficiency virus type 1 group M subtype B, UniProt P04585, G777A); test: FRET-based RT RNase H cleavage assay, G190A RT; assay type: biochemical
T6 construct: made in house
Experimental: as §4, §2, §3

[13] = molecular target: T7, Y188C HIV-1 RT RNase H activity (Human immunodeficiency virus type 1 group M subtype B, UniProt P04585, Y775C); test: FRET-based RT RNase H cleavage assay, Y188C RT; assay type: biochemical
T7 construct: made in house
Experimental: as §4, §2, §3

[14] = system: Y188C HIV-1 RT RNase H activity; test: FRET-based RT RNase H cleavage assay, Y188C RT; assay type: biochemical; settings: Y188C RT; fold resistance IC50 mutant/IC50 WT
Experimental: as §4, §2, §3

[15] = molecular target: T8, P236L HIV-1 RT RNase H activity (Human immunodeficiency virus type 1 group M subtype B, UniProt P04585, P823L); test: FRET-based RT RNase H cleavage assay, P236L RT; assay type: biochemical
T8 construct: made in house
Experimental: as §4, §2, §3

[16] = system: P236L HIV-1 RT RNase H activity; test: FRET-based RT RNase H cleavage assay, P236L RT; assay type: biochemical; settings: P236L RT; fold resistance IC50 mutant/IC50 WT
Experimental: as §4, §2, §3

O=S(=O)(c1cccc(-c2nc3ccccc3s2)c1)N1CCCC1 [Compound 11] gave an IC50 [1] of over 81 µM and an IC50 [2] of 62 ± 38 µM.

Compound O=S(=O)(c1cc(-c2nc3ccccc3s2)ccc1Cl)N1CCOCC1 [Compound 10] has an IC50 [1] of over 81 µM and an IC50 [2] of over 81 µM.

Cc1ccc(-c2nc3ccccc3s2)cc1S(=O)(=O)N1CCOCC1 [Compound 9] showed an IC50 [1] of over 81 µM and an IC50 [2] of over 81 µM.

With O=S(=O)(c1cccc(-c2cn3cc(Cl)ccc3n2)c1)N1CCOCC1 [Compound 7] the IC50 [1] was over 81 µM and the IC50 [2] was over 81 µM.

With Cn1sc2ccccc2c1=O [Compound 3, 2-methylbenzo[d]isothiazol-3(2H)-one] the IC50 [3] was 2.4 ± 0.2 µM, the “Inhibition of RT RNase H Activity Fold-R” value [4] was 1.0 and the “Inhibition of RT RNase H Activity Fold-R” value [5] was 0.9. The IC50 [6] was 2.2 ± 0.3 µM, the CC50 [7] was at least 100 µM and the “Inhibition of RT RNase H Activity Fold-R” value [8] was 0.8. The IC50 [9] was 2.1 ± 0.3 µM, the EC50 [10] was 28.4 ± 12.3 µM and the IC50 [1] was 2.5 ± 0.2 µM. For the same compound, the IC50 [2] was over 81 µM, the “Polymerase Activity IC50 (DNA Polymerase)” value (“Polymerase Activity IC50” for short) [2] was “completely inactive” and the “Inhibition of RT RNase H Activity Fold-R” value [11] was 1.0. The IC50 [12] was 2.4 ± 0.4 µM, the IC50 [13] was 5.7 ± 1.2 µM and the “Inhibition of RT RNase H Activity Fold-R” value [14] was 2.3. For the same compound, the IC50 [15] was 2.2 ± 0.2 µM and the “Inhibition of RT RNase H Activity Fold-R” value [16] was 0.9.

CC1CN(S(=O)(=O)c2cccc(-c3cn4ccccc4n3)c2)CC(C)O1 (stereo not drawn) [Compound 8] gave an IC50 [1] of over 81 µM and an IC50 [2] of over 81 µM.

For O=c1c2ccccc2sn1-c1ccc(S(=O)(=O)N2CCCC2)cc1 [Compound 5], the IC50 [1] was 15.4 ± 9.2 µM, the “RNase H Activity IC50” value [1] was “modest activity” and the IC50 [2] was 25 ± 25 µM. For the same compound, the “Polymerase Activity IC50” value [2] was “modest activity”.

With O=c1c2ccccc2sn1-c1ccc(S(=O)(=O)N2CCCCC2)cc1 [Compound 6] the IC50 [1] was 39.2 ± 21 µM, the “RNase H Activity IC50” value [1] was “modest activity” and the IC50 [2] was 12.2 ± 3.7 µM. For the same compound, the “Polymerase Activity IC50” value [2] was “modest activity”.

In the case of O=c1c(O)ccccc1O [Compound 19619, 2,7-dihydroxy 2,4,6-cyclo-heptatrien-1-one, reference compound], the IC50 [3] is reported as 9.4 ± 0.9 µM, the “Inhibition of RT RNase H Activity Fold-R” value [4] is reported as 1.1 and the “Inhibition of RT RNase H Activity Fold-R” value [5] is reported as 0.9. For the same compound, the IC50 [6] was 8.1 ± 1.7 µM, the “Inhibition of RT RNase H Activity Fold-R” value [8] was 1.4 and the IC50 [9] was 12.1 ± 1.6 µM. For the same compound, the IC50 [1] was 8.7 ± 3 µM, the “Inhibition of RT RNase H Activity Fold-R” value [11] was 0.8 and the IC50 [12] was 7.1 ± 1.9 µM. The IC50 [13] was 5.5 ± 2.4 µM, the “Inhibition of RT RNase H Activity Fold-R” value [14] was 0.6 and the IC50 [15] was 8.9 ± 2.5 µM. The “Inhibition of RT RNase H Activity Fold-R” value [16] was 1.0.
